Measurements: PubChem BioAssay AID2060882 (Molecular Pharmacology Branch, DTP, NCI, 2025)
pIC50: −log10 of the molar value.

System: 898857-211-R-J1-PDC complex spheroids, growth % test/control
Assay: Anticancer human tumor 898857-211-R-J1-PDC patient-derived melanoma cell line growth inhibition [RAS]
Conditions: for pIC50: curve of first compound; for viability, T/C: stronger effect = lower value
Outline: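 Multi-cell-type spheroids: tumor cells plus HUVEC endothelial cells and mesenchymal stem cells. RAS-pathway inhibitors were combined with targeted agents, each dosed in half-log steps down from clinical Cmax, or from 10 microM when Cmax was unknown.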

[1] = second compound 0.00316 µM, first compound 0.0316 µM
[2] = second compound 0.00316 µM, first compound 0.1 µM
[3] = second compound 0.00316 µM, first compound 0.316 µM
[4] = second compound 0.00316 µM, first compound 1 µM
[5] = second compound 0.01 µM, first compound 0.0316 µM
[6] = second compound 0.01 µM, first compound 0.1 µM
[7] = second compound 0.01 µM, first compound 0.316 µM
[8] = second compound 0.01 µM, first compound 1 µM
[9] = second compound 0.0316 µM, first compound 0.0316 µM
[10] = second compound 0.0316 µM, first compound 0.1 µM
[11] = second compound 0.0316 µM, first compound 0.316 µM
[12] = second compound 0.0316 µM, first compound 1 µM
[13] = second compound 0.1 µM, first compound 0.0316 µM
[14] = second compound 0.1 µM, first compound 0.1 µM
[15] = second compound 0.1 µM, first compound 0.316 µM
[16] = second compound 0.1 µM, first compound 1 µM
[17] = second compound 0.316 µM, first compound 0.0316 µM
[18] = second compound 0.316 µM, first compound 0.1 µM
[19] = second compound 0.316 µM, first compound 0.316 µM
[20] = second compound 0.316 µM, first compound 1 µM
[21] = second compound 1 µM, first compound 0.0316 µM
[22] = second compound 1 µM, first compound 0.1 µM
[23] = second compound 1 µM, first compound 0.316 µM
[24] = second compound 1 µM, first compound 1 µM
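Note: spheroids exposed to compound for seven days before readout.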
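Throughout, for viability, T/C: 100% = DMSO vehicle control wells.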

NC1c2ccccc2OC12CCN(c1cnc3c(N4CCCc5ncccc54)n[nH]c3n1)CC2 (centres undefined) + C=CC(=O)N1CCN(c2nc(OCC3CCCN3C)nc3c(F)c(-c4nc(N)cc(C)c4C(F)(F)F)c(Cl)cc23)C(C)C1
pIC50 (second compound 0.00316 µM): < 5.00
pIC50 (second compound 0.01 µM): < 5.00
pIC50 (second compound 0.0316 µM): < 5.00
pIC50 (second compound 0.1 µM): < 5.00
pIC50 (second compound 0.316 µM): < 5.00
pIC50 (second compound 1 µM): < 5.00
viability, T/C [1]: 92.5%
viability, T/C [2]: 98%
viability, T/C [3]: 92.8%
viability, T/C [4]: 89.2%
viability, T/C (second compound 0.00316 µM, first compound 3.16 µM): 79.9%
viability, T/C (second compound 0.00316 µM, first compound 10 µM): 75%
viability, T/C [5]: 94.9%
viability, T/C [6]: 85.9%
viability, T/C [7]: 87.2%
viability, T/C [8]: 83.3%
viability, T/C (second compound 0.01 µM, first compound 3.16 µM): 81.6%
viability, T/C (second compound 0.01 µM, first compound 10 µM): 78.6%
viability, T/C [9]: 88.3%
viability, T/C [10]: 85.8%
viability, T/C [11]: 88.2%
viability, T/C [12]: 86.2%
viability, T/C (second compound 0.0316 µM, first compound 3.16 µM): 87.3%
viability, T/C (second compound 0.0316 µM, first compound 10 µM): 71.8%
viability, T/C [13]: 98.6%
viability, T/C [14]: 89.8%
viability, T/C [15]: 97.3%
viability, T/C [16]: 99.5%
viability, T/C (second compound 0.1 µM, first compound 3.16 µM): 103%
viability, T/C (second compound 0.1 µM, first compound 10 µM): 74.1%
viability, T/C [17]: 112%
viability, T/C [18]: 103%
viability, T/C [19]: 101%
viability, T/C [20]: 107%
viability, T/C (second compound 0.316 µM, first compound 3.16 µM): 102%
viability, T/C (second compound 0.316 µM, first compound 10 µM): 76%
viability, T/C [21]: 116%
viability, T/C [22]: 93.6%
viability, T/C [23]: 108%
viability, T/C [24]: 94.2%
viability, T/C (second compound 1 µM, first compound 3.16 µM): 87.3%
viability, T/C (second compound 1 µM, first compound 10 µM): 58%

Nc1ccn(C2OC(CO)C(O)C2(F)F)c(=O)n1 (centres undefined) + C=CC(=O)N1CCN(c2nc(OCC3CCCN3C)nc3c(F)c(-c4nc(N)cc(C)c4C(F)(F)F)c(Cl)cc23)C(C)C1
pIC50 (second compound 0.00316 µM): 8.10
pIC50 (second compound 0.01 µM): 8.14
pIC50 (second compound 0.0316 µM): 8.15
pIC50 (second compound 0.1 µM): 8.16
pIC50 (second compound 0.316 µM): 8.14
pIC50 (second compound 1 µM): 8.16
viability, T/C (second compound 0.00316 µM, first compound 0.00316 µM): 110%
viability, T/C (second compound 0.00316 µM, first compound 0.01 µM): 34.5%
viability, T/C [1]: 6.39%
viability, T/C [2]: 4.85%
viability, T/C [3]: 5.1%
viability, T/C [4]: 4.69%
viability, T/C (second compound 0.01 µM, first compound 0.00316 µM): 107%
viability, T/C (second compound 0.01 µM, first compound 0.01 µM): 27.9%
viability, T/C [5]: 5.64%
viability, T/C [6]: 4.72%
viability, T/C [7]: 4.8%
viability, T/C [8]: 4.83%
viability, T/C (second compound 0.0316 µM, first compound 0.00316 µM): 103%
viability, T/C (second compound 0.0316 µM, first compound 0.01 µM): 27.9%
viability, T/C [9]: 7.07%
viability, T/C [10]: 5.22%
viability, T/C [11]: 4.65%
viability, T/C [12]: 4.83%
viability, T/C (second compound 0.1 µM, first compound 0.00316 µM): 96%
viability, T/C (second compound 0.1 µM, first compound 0.01 µM): 29.2%
viability, T/C [13]: 6.93%
viability, T/C [14]: 4.35%
viability, T/C [15]: 4.72%
viability, T/C [16]: 4.89%
viability, T/C (second compound 0.316 µM, first compound 0.00316 µM): 103%
viability, T/C (second compound 0.316 µM, first compound 0.01 µM): 30.1%
viability, T/C [17]: 6.17%
viability, T/C [18]: 5.08%
viability, T/C [19]: 5.71%
viability, T/C [20]: 4.45%
viability, T/C (second compound 1 µM, first compound 0.00316 µM): 104%
viability, T/C (second compound 1 µM, first compound 0.01 µM): 24%
viability, T/C [21]: 8.63%
viability, T/C [22]: 5.29%
viability, T/C [23]: 6.52%
viability, T/C [24]: 5.69%
